Results: US20170355705A1 (GlaxoSmithKline Intellectual Property (No.2) Limited, priority 2014, published 2017)

Biological target: T1, SIRT1 (Homo sapiens, UniProt Q96EB6)
T1 sequence (Q96EB6 1-747): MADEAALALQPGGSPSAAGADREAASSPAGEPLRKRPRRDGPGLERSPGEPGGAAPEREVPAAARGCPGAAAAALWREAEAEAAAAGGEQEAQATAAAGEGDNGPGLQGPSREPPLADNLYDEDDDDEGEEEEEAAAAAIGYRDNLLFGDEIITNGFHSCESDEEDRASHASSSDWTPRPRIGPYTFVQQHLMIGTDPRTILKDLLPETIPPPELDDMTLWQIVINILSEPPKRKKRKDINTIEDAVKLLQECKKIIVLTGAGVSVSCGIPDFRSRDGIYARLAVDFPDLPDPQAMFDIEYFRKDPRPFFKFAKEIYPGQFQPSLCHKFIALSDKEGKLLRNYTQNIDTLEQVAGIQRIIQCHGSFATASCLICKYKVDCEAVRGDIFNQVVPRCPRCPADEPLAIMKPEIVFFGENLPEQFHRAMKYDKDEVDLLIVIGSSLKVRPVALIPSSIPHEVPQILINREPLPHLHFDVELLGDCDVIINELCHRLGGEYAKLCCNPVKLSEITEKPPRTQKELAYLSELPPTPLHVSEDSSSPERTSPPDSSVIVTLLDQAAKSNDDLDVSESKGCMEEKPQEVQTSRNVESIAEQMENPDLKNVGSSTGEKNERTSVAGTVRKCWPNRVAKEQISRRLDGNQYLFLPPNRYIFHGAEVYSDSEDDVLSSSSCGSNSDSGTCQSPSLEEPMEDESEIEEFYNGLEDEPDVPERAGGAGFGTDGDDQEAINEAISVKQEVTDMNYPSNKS
Assay: Trp mass spectrometry assay of SIRT1 activity (EC1.5, percent maximum activation)
Type: biochemical
Details: Trp mass spectrometry assay; for TRP Activity (EC1.5): EC1.5 = concentration giving 150% activation of SIRT1; for TRP MAX RESP (percent maximum fold activation): percent maximum activation of SIRT1
Method in brief: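 N-terminal His-tagged human SIRT1, expressed in BL21(DE3) and purified, was incubated 25 min with an acetylated Trp peptide and NAD plus test compound at varying concentrations, then quenched with formic acid. OAADPR or deacetylated peptide was quantified by mass spectrometry versus compound-free control; EC1.5 is the concentration giving 50% activity increase, with percent maximum activation.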

SMILES: Cc1cc(-c2ccc3c(n2)N(C(=O)Nc2cnccn2)[C@H]2CCN3C2)cnc1C [Example 171, (4S)-7-(5,6-dimethylpyridin-3-yl)-N-(pyrazin-2-yl)-3,4-dihydro-1,4-methanopyrido[2,3-b][1,4]diazepine-5(2H)-carboxamide]
- TRP Activity (EC1.5): A (EC1.5<1 μM)
- TRP MAX RESP (percent maximum fold activation): A (Fold activation ≧150%)

SMILES: CN(C)c1cccc(-c2ccc3c(n2)N(C(=O)Nc2cnccn2)[C@H]2CCN3C2)c1 [Example 172, (4S)-7-(3-(dimethylamino)phenyl)-N-(pyrazin-2-yl)-3,4-dihydro-1,4-methanopyrido[2,3-b][1,4]diazepine-5(2H)-carboxamide]
- TRP Activity (EC1.5): B (EC1.5 1-25 μM)
- TRP MAX RESP (percent maximum fold activation): A (Fold activation ≧150%)

SMILES: Cc1cc(-c2ccc3c(n2)N(C(=O)N2CCCC2)[C@H]2CCN3C2)ccn1 [Example 173, ((4S)-7-(2-methylpyridin-4-yl)-3,4-dihydro-1,4-methanopyrido[2,3-b][1,4]diazepin-5(2H)-yl)(pyrrolidin-1-yl)methanone]
- TRP Activity (EC1.5): C (EC1.5>25 μM)
- TRP MAX RESP (percent maximum fold activation): B (Fold Activation <150%)

SMILES: Cc1cc(-c2ccc3c(n2)N(C(=O)N2CCN(C)CC2)[C@H]2CCN3C2)ccn1 [Example 174, (4-methylpiperazin-1-yl)((4S)-7-(2-methylpyridin-4-yl)-3,4-dihydro-1,4-methanopyrido[2,3-b][1,4]diazepin-5(2H)-yl)methanone]
- TRP Activity (EC1.5): C (EC1.5>25 μM)
- TRP MAX RESP (percent maximum fold activation): B (Fold Activation <150%)

SMILES: Cc1cc(-c2ccc3c(n2)N(C(=O)NC2CCCC2)[C@H]2CCN3C2)ccn1 [Example 175, (4S)-N-cyclopentyl-7-(2-methylpyridin-4-yl)-3,4-dihydro-1,4-methanopyrido[2,3-b][1,4]diazepine-5(2H)-carboxamide]
- TRP Activity (EC1.5): B (EC1.5 1-25 μM)
- TRP MAX RESP (percent maximum fold activation): A (Fold activation ≧150%)

SMILES: O=C(Nc1cnccn1)N1c2nc(-c3ccn[nH]3)ccc2N2CC[C@H]1C2 [Example 176, (4S)-N-(pyrazin-2-yl)-7-(1H-pyrazol-5-yl)-3,4-dihydro-1,4-methanopyrido[2,3-b][1,4]diazepine-5(2H)-carboxamide]
- TRP Activity (EC1.5): B (EC1.5 1-25 μM)
- TRP MAX RESP (percent maximum fold activation): A (Fold activation ≧150%)

SMILES: O=C(O)c1cc(-c2ccc3c(n2)N(C(=O)Nc2cnccn2)[C@H]2CCN3C2)ccn1 [Example 177, 4-((4S)-5-(pyrazin-2-ylcarbamoyl)-2,3,4,5-tetrahydro-1,4-methanopyrido[2,3-b][1,4]diazepin-7-yl)picolinic acid]
- TRP Activity (EC1.5): C (EC1.5>25 μM)
- TRP MAX RESP (percent maximum fold activation): B (Fold Activation <150%)

SMILES: Cc1ccc(NC(=O)N2c3nc(-c4ccnc(C)c4)ccc3N3CC[C@H]2C3)cn1 [Example 178, (4S)-N-(6-methylpyridin-3-yl)-7-(2-methylpyridin-4-yl)-3,4-dihydro-1,4-methanopyrido[2,3-b][1,4]diazepine-5(2H)-carboxamide]
- TRP Activity (EC1.5): B (EC1.5 1-25 μM)
- TRP MAX RESP (percent maximum fold activation): A (Fold activation ≧150%)

SMILES: CN(C)c1cc(-c2ccc3c(n2)N(C(=O)Nc2cnccn2)[C@H]2CCN3C2)ccn1 [Example 179, (4S)-7-(2-(dimethylamino)pyridin-4-yl)-N-(pyrazin-2-yl)-3,4-dihydro-1,4-methanopyrido[2,3-b][1,4]diazepine-5(2H)-carboxamide]
- TRP Activity (EC1.5): B (EC1.5 1-25 μM)
- TRP MAX RESP (percent maximum fold activation): A (Fold activation ≧150%)

SMILES: O=C(Nc1cnccn1)N1c2nc(-c3ccc(C4CC4)nc3)ccc2N2CC[C@H]1C2 [Example 180, (4S)-7-(6-cyclopropylpyridin-3-yl)-N-(pyrazin-2-yl)-3,4-dihydro-1,4-methanopyrido[2,3-b][1,4]diazepine-5(2H)-carboxamide]
- TRP Activity (EC1.5): B (EC1.5 1-25 μM)
- TRP MAX RESP (percent maximum fold activation): A (Fold activation ≧150%)

SMILES: O=C(Nc1cnccn1)N1c2nc(N3CCCCC3)ccc2N2CC[C@H]1C2 [Example 181, (4S)-7-(piperidin-1-yl)-N-(pyrazin-2-yl)-3,4-dihydro-1,4-methanopyrido[2,3-b][1,4]diazepine-5(2H)-carboxamide]
- TRP Activity (EC1.5): B (EC1.5 1-25 μM)
- TRP MAX RESP (percent maximum fold activation): A (Fold activation ≧150%)

SMILES: Cc1cc(-c2ccc3c(n2)N(C(=O)Nc2ccn(C)n2)[C@H]2CCN3C2)ccn1 [Example 182, (4S)-N-(1-methyl-1H-pyrazol-3-yl)-7-(2-methylpyridin-4-yl)-3,4-dihydro-1,4-methanopyrido[2,3-b][1,4]diazepine-5(2H)-carboxamide]
- TRP Activity (EC1.5): B (EC1.5 1-25 μM)
- TRP MAX RESP (percent maximum fold activation): A (Fold activation ≧150%)

SMILES: Cc1cc(-c2ccc3c(n2)N(C(=O)NC2CCC2)[C@H]2CCN3C2)ccn1 [Example 183, (4S)-N-cyclobutyl-7-(2-methylpyridin-4-yl)-3,4-dihydro-1,4-methanopyrido[2,3-b][1,4]diazepine-5(2H)-carboxamide]
- TRP Activity (EC1.5): B (EC1.5 1-25 μM)
- TRP MAX RESP (percent maximum fold activation): A (Fold activation ≧150%)

SMILES: Cc1cc(-c2ccc3c(n2)N(C(=O)NCc2ccccn2)[C@H]2CCN3C2)ccn1 [Example 186, (4S)-7-(2-methylpyridin-4-yl)-N-(pyridin-2-ylmethyl)-3,4-dihydro-1,4-methanopyrido[2,3-b][1,4]diazepine-5(2H)-carboxamide]
- TRP Activity (EC1.5): C (EC1.5>25 μM)
- TRP MAX RESP (percent maximum fold activation): B (Fold Activation <150%)

SMILES: Cc1cc(-c2ccc3c(n2)N(C(=O)Nc2cnncn2)[C@H]2CCN3C2)ccn1 [Example 187, (4S)-7-(2-methylpyridin-4-yl)-N-(1,2,4-triazin-5-yl)-3,4-dihydro-1,4-methanopyrido[2,3-b][1,4]diazepine-5(2H)-carboxamide]
- TRP Activity (EC1.5): C (EC1.5>25 μM)
- TRP MAX RESP (percent maximum fold activation): B (Fold Activation <150%)

SMILES: Cc1cc(-c2ccc3c(n2)N(C(=O)Nc2ccc4[nH]cnc4n2)[C@H]2CCN3C2)ccn1 [Example 189, (4S)-N-(1H-imidazo[4,5-b]pyridin-5-yl)-7-(2-methylpyridin-4-yl)-3,4-dihydro-1,4-methanopyrido[2,3-b][1,4]diazepine-5(2H)-carboxamide]
- TRP Activity (EC1.5): B (EC1.5 1-25 μM)
- TRP MAX RESP (percent maximum fold activation): A (Fold activation ≧150%)

SMILES: Cc1cc(-c2ccc3c(n2)N(C(=O)Nc2cncc(F)n2)[C@H]2CCN3C2)ccn1 [Example 190, (4S)-N-(6-fluoropyrazin-2-yl)-7-(2-methylpyridin-4-yl)-3,4-dihydro-1,4-methanopyrido[2,3-b][1,4]diazepine-5(2H)-carboxamide]
- TRP Activity (EC1.5): A (EC1.5<1 μM)
- TRP MAX RESP (percent maximum fold activation): A (Fold activation ≧150%)

SMILES: O=C(Nc1cnccn1)N1c2nc(N3CCC(C(F)(F)F)CC3)ccc2N2CC[C@H]1C2 [Example 191, (4S)-N-(pyrazin-2-yl)-7-(4-(trifluoromethyl)piperidin-1-yl)-3,4-dihydro-1,4-methanopyrido[2,3-b][1,4]diazepine-5(2H)-carboxamide]
- TRP Activity (EC1.5): A (EC1.5<1 μM)
- TRP MAX RESP (percent maximum fold activation): A (Fold activation ≧150%)

SMILES: Cc1cncc(NC(=O)N2c3nc(-c4ccnc(C)c4)ccc3N3CC[C@H]2C3)c1 [Example 194, (4S)-N-(5-methylpyridin-3-yl)-7-(2-methylpyridin-4-yl)-3,4-dihydro-1,4-methanopyrido[2,3-b][1,4]diazepine-5(2H)-carboxamide]
- TRP Activity (EC1.5): B (EC1.5 1-25 μM)
- TRP MAX RESP (percent maximum fold activation): A (Fold activation ≧150%)

SMILES: Cc1cc(-c2ccc3c(n2)N(C(=O)Nc2ccc4c(c2)OCO4)[C@H]2CCN3C2)ccn1 [Example 195, (4S)-N-(benzo[d][1,3]dioxol-5-yl)-7-(2-methylpyridin-4-yl)-3,4-dihydro-1,4-methanopyrido[2,3-b][1,4]diazepine-5(2H)-carboxamide]
- TRP Activity (EC1.5): A (EC1.5<1 μM)
- TRP MAX RESP (percent maximum fold activation): A (Fold activation ≧150%)
